# Reference: patent US10308667B2, “Oxadiazolopyridine derivatives for use as ghrelin O-acyl transferase (GOAT) inhibitors” (Boehringer Ingelheim International GmbH, priority 2016, dated 2019)
# Molecular target: human GOAT (Homo sapiens (Human), UniProt Q96T53)
# Test: Determination of hGOAT Activity in HEK293 Cells after Incubation with Test Compound
# Type: cell-based
# Conditions: HEK293 cells stably transfected with preproghrelin and human GOAT; octanoate-BSA 100 μM; acyl-ghrelin in medium by ELISA after 5 hours
# Experimental: Determination of hGOAT Activity in HEK293 Cells after Incubation with Test Compound
# HEK293 cells stably transfected with two expression vectors, one coding for preproghrelin cDNA and a second for the expression of human GOATcDNA are used as a cellular model. After feeding the cells with octanoic acid for 5 hours, acyl-ghrelin is measured in cell culture medium by an ELISA procedure.
# Cellline: Hek293 hGOAT/PPGhrl Clone #1B8Sodium octanoate, Sigma, Cat.-No. C5038
# BD Poly-D-Lysin 384-well Plates, black-clear polystyrene BD Bioscience Cat.-No. […] ELISA human acylated Ghrelin Kit purchased from Bertin Pharman (detailed composition of buffers e.g. wash-puffer, ELISA buffer not known)
# Cells are plated with a density of 5000 cells/well in 384-well poly-D-lysin plates and incubated for 1 day at 37° C., 5% CO2 in DMEM medium, 10% FCS, 1×NEAA, Puromycin (0.5 μg/ml) and G418 (1 mg/ml). Then the medium is changed to a identical medium without FCS and containing Octanoate-BSA (final concentration 100 μM each) and compound in DMSO (final DMSO concentration 0.3%). After incubation for 5 hours acylghrelin in the medium is measured by ELISA
# The medium sample is diluted 1:25 in Elisa buffer, A 25 ul aliquot is transferred to a 384-well ELISA plate previously washed 4 times with 100 μL wash buffer, and 25 μl tracer-solution is added. After incubation overnight (˜20 h) at 4° C. temperature the plate is washed 4 times with 100 μl wash-buffer per well. Finally 50 μl Ellman's reagent is added to each well and the plate is incubated in the dark for 20 minutes. The absorbance is measured at 405 nm in an Envision multilabel reader and the amount of acylated ghrelin is calculated according to a acylated ghrelin standard curve provided in the same plate.
# The analysis of the data is performed by calculation of the percentage of acyl-ghrelin produced in the presence of test compound compared to the amount of acyl-ghrelin produced in the vehicle control samples. An inhibitor of the GOAT enzyme will give values between 100% CTL (no inhibition) and 0% CTL (complete inhibition). IC50 values are calculated with Assay Explorer or other suited software based on curve fitting of results of 8 different compound concentrations.
# human GOAT, sequence (Q96T53 whole entry): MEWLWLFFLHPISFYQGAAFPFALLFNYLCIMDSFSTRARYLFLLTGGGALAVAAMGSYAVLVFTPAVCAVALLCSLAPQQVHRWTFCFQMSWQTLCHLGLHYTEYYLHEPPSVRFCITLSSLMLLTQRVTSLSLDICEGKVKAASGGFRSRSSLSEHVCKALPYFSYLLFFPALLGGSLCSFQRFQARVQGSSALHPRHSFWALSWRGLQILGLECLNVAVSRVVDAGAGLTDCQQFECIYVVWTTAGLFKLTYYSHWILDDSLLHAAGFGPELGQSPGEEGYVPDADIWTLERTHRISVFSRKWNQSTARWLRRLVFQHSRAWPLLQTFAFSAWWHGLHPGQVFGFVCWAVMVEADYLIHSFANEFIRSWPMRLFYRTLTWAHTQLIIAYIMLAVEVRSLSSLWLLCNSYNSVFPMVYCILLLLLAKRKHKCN
row,IC50 [pM],Structure (SMILES)
1,1400,"COc1ccc(Cc2c(C)nc3nonc3c2N)nc1 [Example 1, 6-(5-Methoxy-pyridin-2-ylmethyl)-5-methyl-[1,2,5]oxadiazolo[3,4-b]pyridin-7-ylamine]"
2,3600,"Cc1nc2nonc2c(N)c1Cc1cc(C#N)c(C(F)(F)F)cn1 [Example 2, 2-(7-Amino-5-methyl-[1,2,5]oxadiazolo[3,4-b]pyridin-6-ylmethyl)-5-trifluoromethyl-isonicotinonitrile]"
3,460,"Cc1nc2nonc2c(N)c1Cc1cccc(Cl)n1 [Example 3, 6-(6-Chloro-pyridin-2-ylmethyl)-5-methyl-[1,2,5]oxadiazolo[3,4-b]pyridin-7-ylamine]"
4,1700,"Cc1nc2nonc2c(N)c1Cc1ccc(C#N)cn1 [Example 4, 6-(7-Amino-5-methyl-[1,2,5]oxadiazolo[3,4-b]pyridin-6-ylmethyl)-nicotinonitrile]"
5,240,"Cc1nc2nonc2c(N)c1Cc1ccc(Br)cn1 [Example 5, 6-(5-Bromo-pyridin-2-ylmethyl)-5-methyl-[1,2,5]oxadiazolo[3,4-b]pyridin-7-ylamine]"
6,610,"Cc1nc2nonc2c(N)c1Cc1ccc(C(F)(F)F)cn1 [Example 6, 5-Methyl-6-(5-trifluoromethyl-pyridin-2-ylmethyl)-[1,2,5]oxadiazolo[3,4-b]pyridin-7-ylamine]"
7,950,"Cc1nc2nonc2c(N)c1Cc1cccc(Br)n1 [Example 7, 6-(6-Bromo-pyridin-2-ylmethyl)-5-methyl-[1,2,5]oxadiazolo[3,4-b]pyridin-7-ylamine]"
8,420,"Cc1nc2nonc2c(N)c1Cc1ccc(Cl)cn1 [Example 8, 6-(5-Chloro-pyridin-2-ylmethyl)-5-methyl-[1,2,5]oxadiazolo[3,4-b]pyridin-7-ylamine]"
9,440,"Cc1nc2nonc2c(N)c1Cc1ccc(C(F)F)cn1 [Example 9, 6-(5-Difluoromethyl-pyridin-2-ylmethyl)-5-methyl-[1,2,5]oxadiazolo[3,4-b]pyridin-7-ylamine]"
10,13000,"COC(=O)Cc1ccc(Cc2c(C)nc3nonc3c2N)nc1 [Example 10, [6-(7-Amino-5-methyl-[1,2,5]oxadiazolo[3,4-b]pyridin-6-ylmethyl)-pyridin-3-yl]-acetic Acid Methyl Ester]"
11,130,"Cc1nc2nonc2c(N)c1Cc1ccc(C(C)(F)F)cn1 [Example 11, 6-[5-(1,1-Difluoro-ethyl)-pyridin-2-ylmethyl]-5-methyl-[1,2,5]oxadiazolo[3,4-b]pyridin-7-ylamine]"
12,6500,"Cc1nc2nonc2c(N)c1Cc1ccc(F)cn1 [Example 12, 6-(5-Fluoro-pyridin-2-ylmethyl)-5-methyl-[1,2,5]oxadiazolo[3,4-b]pyridin-7-ylamine]"
13,4400,"Cc1nc2nonc2c(N)c1Cc1cccc(F)n1 [Example 13, 6-(6-Fluoro-pyridin-2-ylmethyl)-5-methyl-[1,2,5]oxadiazolo[3,4-b]pyridin-7-ylamine]"
14,670,"Cc1nc2nonc2c(N)c1Cc1ccc(OC(F)F)cn1 [Example 14, 6-(5-Difluoromethoxy-pyridin-2-ylmethyl)-5-methyl-[1,2,5]oxadiazolo[3,4-b]pyridin-7-ylamine]"
15,38,"Cc1nc2nonc2c(N)c1Cc1ccc(OC(F)F)c(Br)n1 [Example 15, 6-(6-Bromo-5-difluoromethoxy-pyridin-2-ylmethyl)-5-methyl-[1,2,5]oxadiazolo[3,4-b]pyridin-7-ylamine]"
16,280,"CSc1cccc(Cc2c(C)nc3nonc3c2N)n1 [Example 16, 5-Methyl-6-(6-methylsulfanyl-pyridin-2-ylmethyl)-[1,2,5]oxadiazolo[3,4-b]pyridin-7-ylamine]"
17,220,"Cc1nc2nonc2c(N)c1Cc1ccc(OC(F)(F)F)cn1 [Example 17, 5-Methyl-6-(5-trifluoromethoxy-pyridin-2-ylmethyl)-[1,2,5]oxadiazolo[3,4-b]pyridin-7-ylamine]"
18,320,"Cc1nc2nonc2c(N)c1Cc1ccc2c(n1)OCCO2 [Example 18, 6-(2,3-Dihydro-[1,4]dioxino[2,3-b]pyridin-6-ylmethyl)-5-methyl-[1,2,5]oxadiazolo[3,4-b]pyridin-7-ylamine]"

row,IC50 [pM],Structure (SMILES)
1,170,"Cc1nc2nonc2c(N)c1Cc1cc(Cl)c(C(F)(F)F)cn1 [Example 20, 6-(4-Chloro-5-trifluoromethyl-pyridin-2-ylmethyl)-5-methyl-[1,2,5]oxadiazolo[3,4-b]pyridin-7-ylamine]"
2,120,"Cc1nc2nonc2c(N)c1Cc1ccc(C#N)c(Cl)n1 [Example 24, 6-(7-Amino-5-methyl-[1,2,5]oxadiazolo[3,4-b]pyridin-6-ylmethyl)-2-chloro-nicotinonitrile]"
3,4400,"Cc1nc2nonc2c(N)c1Cc1ccc(F)c(C#N)n1 [Example 25, 6-(7-Amino-5-methyl-[1,2,5]oxadiazolo[3,4-b]pyridin-6-ylmethyl)-3-fluoro-pyridine-2-carbonitrile]"
4,8800,"Cc1nc2nonc2c(N)c1Cc1cc(C(F)(F)F)ccn1 [Example 26, 5-Methyl-6-(4-trifluoromethyl-pyridin-2-ylmethyl)-[1,2,5]oxadiazolo[3,4-b]pyridin-7-ylamine]"
5,48000,"Cc1nc2nonc2c(N)c1Cc1cc(C#N)ccn1 [Example 28, 2-(7-Amino-5-methyl-[1,2,5]oxadiazolo[3,4-b]pyridin-6-ylmethyl)-isonicotinonitrile]"
6,16000,"Cc1nc2nonc2c(N)c1Cc1cc(C(N)=O)ccn1 [Example 29, 2-(7-Amino-5-methyl-[1,2,5]oxadiazolo[3,4-b]pyridin-6-ylmethyl)-isonicotinamide]"
7,2700,"Cc1nc2nonc2c(N)c1Cc1ncc(Cl)cn1 [Example 30, 6-(5-Chloro-pyrimidin-2-ylmethyl)-5-methyl-[1,2,5]oxadiazolo[3,4-b]pyridin-7-ylamine]"
8,300,"Cc1nc2nonc2c(N)c1Cc1ccc(OC(F)(F)F)c(C#N)n1 [Example 33, 6-(7-Amino-5-methyl-[1,2,5]oxadiazolo[3,4-b]pyridin-6-ylmethyl)-3-trifluoromethoxy-pyridine-2-carbonitrile]"
9,3200,"Cc1nc2nonc2c(N)c1Cc1nccc(C(F)(F)F)n1 [Example 34, 5-Methyl-6-(4-trifluoromethyl-pyrimidin-2-ylmethyl)-[1,2,5]oxadiazolo[3,4-b]pyridin-7-ylamine]"
10,1800,"Cc1nc2nonc2c(N)c1Cc1ncc(C(F)(F)F)cn1 [Example 35, 5-methyl-6-[5-(trifluoromethyl)pyrimidin-2-yl]methyl-[1,2,5]oxadiazolo[3,4-b]pyridin-7-amine]"
11,6900,"Cc1nc2nonc2c(N)c1Cc1cc(C(F)(F)F)cc(C#N)n1 [Example 36, 6-(7-amino-5-methyl-[1,2,5]oxadiazolo[3,4-b]pyridin-6-ylmethyl)-4-(trifluoromethyl)pyridine-2-carbonitrile]"
12,2600,"Cc1nc2nonc2c(N)c1Cc1cc(Cl)cc(C#N)n1 [Example 38, 6-(7-amino-5-methyl-[1,2,5]oxadiazolo[3,4-b]pyridin-6-ylmethyl)-4-chloropyridine-2-carbonitrile]"
13,180,"Cc1nc2nonc2c(N)c1Cc1ccc(C2CC2)cn1 [Example 39, 6-[(5-cyclopropylpyridin-2-yl)methyl]-5-methyl-[1,2,5]oxadiazolo[3,4-b]pyridin-7-amine]"
14,1200,"Cc1nc2nonc2c(N)c1Cc1ccc(OC2CC2)cn1 [Example 41, 6-[(5-cyclopropoxypyridin-2-yl)methyl]-5-methyl-[1,2,5]oxadiazolo[3,4-b]pyridin-7-amine]"
15,73,"Cc1nc2nonc2c(N)c1Cc1ccc(C2CC2)c(C#N)n1 [Example 42, 6-(7-amino-5-methyl-[1,2,5]oxadiazolo[3,4-b]pyridin-6-ylmethyl)-3-cyclopropylpyridine-2-carbonitrile]"
16,370,"Cc1nc2nonc2c(N)c1Cc1ccc(C#N)c(C2CC2)n1 [Example 43, 6-(7-amino-5-methyl-[1,2,5]oxadiazolo[3,4-b]pyridin-6-ylmethyl)-2-cyclopropylpyridine-3-carbonitrile]"
17,170,"CSc1ccc(Cc2c(C)nc3nonc3c2N)nc1 [Example 44, 5-Methyl-6-(5-methylsulfanyl-pyridin-2-ylmethyl)-[1,2,5]oxadiazolo[3,4-b]pyridin-7-ylamine]"
18,1200,"Cc1nc2nonc2c(N)c1Cc1ncc(C#N)c(N)n1 [Example 45, 4-amino-2-(7-amino-5-methyl-[1,2,5]oxadiazolo[3,4-b]pyridin-6-ylmethyl)pyrimidine-5-carbonitrile]"
